Test results published in patent US20210395239A1 (Hoffmann-La Roche Inc., priority 2018, published 2021).

Target: T1, human TLR8 (Homo sapiens, UniProt Q9NR97)
T1 construct: host or cells: HEK293 (HEK-Blue hTLR8)
T1 sequence (Q9NR97 27-1041): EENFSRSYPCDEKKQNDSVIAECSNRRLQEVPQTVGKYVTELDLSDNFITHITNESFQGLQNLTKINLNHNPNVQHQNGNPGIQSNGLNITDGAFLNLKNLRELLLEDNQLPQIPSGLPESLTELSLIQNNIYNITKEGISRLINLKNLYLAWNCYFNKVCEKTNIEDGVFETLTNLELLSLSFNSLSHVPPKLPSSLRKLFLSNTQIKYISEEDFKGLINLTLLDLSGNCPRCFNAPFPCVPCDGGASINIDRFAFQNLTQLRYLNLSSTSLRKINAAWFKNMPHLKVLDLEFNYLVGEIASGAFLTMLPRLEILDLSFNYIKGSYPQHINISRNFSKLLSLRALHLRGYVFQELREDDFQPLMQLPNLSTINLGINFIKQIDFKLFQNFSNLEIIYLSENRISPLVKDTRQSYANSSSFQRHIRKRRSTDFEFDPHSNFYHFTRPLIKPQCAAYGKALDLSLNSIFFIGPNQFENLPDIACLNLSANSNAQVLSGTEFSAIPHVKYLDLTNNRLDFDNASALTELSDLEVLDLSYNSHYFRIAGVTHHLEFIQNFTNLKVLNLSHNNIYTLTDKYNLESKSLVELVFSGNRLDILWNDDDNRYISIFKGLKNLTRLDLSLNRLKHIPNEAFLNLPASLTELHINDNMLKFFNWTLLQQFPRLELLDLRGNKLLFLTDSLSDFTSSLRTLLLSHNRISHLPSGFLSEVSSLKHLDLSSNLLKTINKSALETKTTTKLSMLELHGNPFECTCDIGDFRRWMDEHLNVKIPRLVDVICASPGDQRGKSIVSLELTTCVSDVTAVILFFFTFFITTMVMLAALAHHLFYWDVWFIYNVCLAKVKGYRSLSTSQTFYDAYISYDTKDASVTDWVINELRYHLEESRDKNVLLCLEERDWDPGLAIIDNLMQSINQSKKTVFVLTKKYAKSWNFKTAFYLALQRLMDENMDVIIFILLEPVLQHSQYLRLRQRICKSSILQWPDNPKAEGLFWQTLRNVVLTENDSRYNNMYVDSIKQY
Test: HEK293-Blue-hTLR-8 cells assay (SEAP reporter, R848 stimulation)
Assay type: cell-based
Details: HEK293-Blue-hTLR8 cells, R848, 20 hrs; read-out: HEK/hTLR8 IC50
Description: HEK293-Blue-hTLR-8 Cells Assay:
A stable HEK293-Blue-hTLR-8 cell line was purchased from InvivoGen (Cat. #: hkb-ht1r8, San Diego, Calif., USA). These cells were originally designed for studying the stimulation of human TLR8 by monitoring the activation of NF-κB. A SEAP (secreted embryonic alkaline phosphatase) reporter gene was placed under the control of the IFN-β minimal promoter fused to five NF-κB and AP-1-binding sites. The SEAP was induced by activating NF-κB and AP-1 via stimulating HEK-Blue hTLR8 cells with TLR8 ligands. Therefore the reporter expression was declined by TLR8 antagonist under the stimulation of a ligand, such as R848, for incubation of 20 hrs. The cell culture supernatant SEAP reporter activity was determined using QUANTI-Blue™ kit (Cat. #: rep-qb1, Invivogen, San Diego, Ca, USA) at a wavelength of 640 nm, a detection medium that turns purple or blue in the presence of alkaline phosphatase.
HEK293-Blue-hTLR8 cells were incubated at a density of 250,000˜450,000 cells/mL in a volume of 170 μL in a 96-well plate in Dulbecco's Modified Eagle's medium (DMEM) containing 4.5 g/L glucose, 50 U/mL penicillin, […], […], 2 mM L-glutamine, 10% (v/v) heat-inactivated fetal bovine serum with addition of 20 μL test compound in a serial dilution in the presence of final DMSO at 1% and 10 μL of 60 uM R848 in above DMEM, perform incubation under 37° C. in a CO2 incubator for 20 hrs. Then 20 μL of the supernatant from each well was incubated with 180 μL Quanti-blue substrate solution at 37° C. for 2 hrs and the absorbance was read at 620˜655 nm using a spectrophotometer. The signaling pathway that TLR8 activation leads to downstream NF-κB activation has been widely accepted, and therefore similar reporter assay was modified for evaluating TLR8 antagonist.

IC50 [nM]	Compound
17	[2H]c1ccc2c(N3C[C@H](CN4CCN(c5ncc(N6C[C@@H](N)[C@H](OC)C6)cc5C)CC4)O[C@H](C)C3)ccc(C#N)c2n1 [Example 142, 5-[(2S,6R)-2-[[4-[5-[(3R,4R)-3-amino-4-methoxy-pyrrolidin-1-yl]-3-methyl-2-pyridyl]piperazin-1-yl]methyl]-6-methyl-morpholin-4-yl]-2-deuterio-quinoline-8-carbonitrile]
2	C[C@@H]1CN(c2ccc(C#N)c3ncccc23)C[C@H](CN2CCN(c3ccnc(N4C[C@H](N)[C@@H](F)C4)n3)CC2)O1 [Example 110, 5-[(2S,6R)-2-[[4-[2-[(3S,4S)-3-amino-4-fluoro-pyrrolidin-1-yl]pyrimidin-4-yl]piperazin-1-yl]methyl]-6-methyl-morpholin-4-yl]quinoline-8-carbonitrile]
11	[2H]c1ccc2c(N3C[C@H](CN4CCN(c5ccc(N6CC(C)(N)C6)nc5C)CC4)O[C@H](C)C3)ccc(C#N)c2n1 [Example 137, 5-[(2S,6R)-2-[[4-[6-(3-amino-3-methyl-azetidin-1-yl)-2-methyl-3-pyridyl]piperazin-1-yl]methyl]-6-methyl-morpholin-4-yl]-2-deuterio-quinoline-8-carbonitrile]
1	[2H]c1ccc2c(N3C[C@H](CN4CCN(c5nc(C)cc(N6C[C@H](OC)[C@@H](N)C6)n5)CC4)O[C@H](C)C3)ccc(C#N)c2n1 [Example 134, 5-[(2S,6R)-2-[[4-[4-[(3S,4S)-3-amino-4-methoxy-pyrrolidin-1-yl]-6-methyl-pyrimidin-2-yl]piperazin-1-yl]methyl]-6-methyl-morpholin-4-yl]-2-deuterio-quinoline-8-carbonitrile]
3	COC1CN(c2nccc(N3CCN(C[C@H]4CN(c5ccc(C#N)c6ncccc56)C[C@@H](C)O4)CC3)n2)CC1N (stereo in doubt) [Example 93, 5-[(2S,6R)-2-[[4-[2-[(3R,4S)-3-amino-4-methoxy-pyrrolidin-1-yl]pyrimidin-4-yl]piperazin-1-yl]methyl]-6-methyl-morpholin-4-yl]quinoline-8-carbonitrile]
1	[2H]c1ccc2c(N3C[C@H](CN4CCN(c5nc(C)cc(N6CC(N)C6)n5)CC4)O[C@H](C)C3)ccc(C#N)c2n1 [Example 136, 5-[(2S,6R)-2-[[4-[4-(3-aminoazetidin-1-yl)-6-methyl-pyrimidin-2-yl]piperazin-1-yl]methyl]-6-methyl-morpholin-4-yl]-2-deuterio-quinoline-8-carbonitrile]

Continued, compound first:

Compound	IC50 [nM]
Cc1ccc(N2C[C@H](CN3CCN(c4ccnc(N5CC6(CNCCO6)C5)n4)CC3)O[C@H](C)C2)c2nccnc12 [Example 126, 2-[4-[4-[[(2S,6R)-6-methyl-4-(8-methylquinoxalin-5-yl)morpholin-2-yl]methyl]piperazin-1-yl]pyrimidin-2-yl]-5-oxa-2,8-diazaspiro[3.5]nonane]	6
C[C@@H]1CN(c2ccc(C#N)c3nccnc23)C[C@H](CN2CCN(c3ccnc(N4CC[C@H](N)[C@H](F)C4)n3)CC2)O1 [Example 111, 8-[(2S,6R)-2-[[4-[2-[(3R,4S)-4-amino-3-fluoro-1-piperidyl]pyrimidin-4-yl]piperazin-1-yl]methyl]-6-methyl-morpholin-4-yl]quinoxaline-5-carbonitrile]	1
C[C@@H]1CN(c2ccc(C#N)c3nccnc23)C[C@H](CN2CCN(c3nccc(N4CC(N)C4)n3)CC2)O1 [Example 118, 8-[(2S,6R)-2-[[4-[4-(3-aminoazetidin-1-yl)pyrimidin-2-yl]piperazin-1-yl]methyl]-6-methyl-morpholin-4-yl]quinoxaline-5-carbonitrile]	1
Cc1ccc(N2C[C@H](CN3CCN(c4nccc(N5CCNCC5)n4)CC3)O[C@H](C)C2)c2nccnc12 [Example 116, (2R,6S)-2-methyl-4-(8-methylquinoxalin-5-yl)-6-[[4-(4-piperazin-1-ylpyrimidin-2-yl)piperazin-1-yl]methyl]morpholine]	5
CO[C@@H]1CN(c2ccc(N3CCN(C[C@H]4CN(c5ccc(C#N)n6ncc(F)c56)C[C@@H](C)O4)CC3)cn2)C[C@H]1N [Example 166, 4-[(2S,6R)-2-[[4-[6-[(3R,4R)-3-amino-4-methoxy-pyrrolidin-1-yl]-3-pyridyl]piperazin-1-yl]methyl]-6-methyl-morpholin-4-yl]-3-fluoro-pyrazolo[1,5-a]pyridine-7-carbonitrile]	31
C[C@@H]1CN(c2ccc(C#N)c3nccnc23)C[C@H](CN2CCN(c3ccnc(N4CC[C@@H](N)[C@H](F)C4)n3)CC2)O1 [Example 113, 8-[(2S,6R)-2-[[4-[2-[(3R,4R)-4-amino-3-fluoro-1-piperidyl]pyrimidin-4-yl]piperazin-1-yl]methyl]-6-methyl-morpholin-4-yl]quinoxaline-5-carbonitrile]	1
C[C@@H]1CN(c2ccc(C#N)n3nccc23)C[C@H](CN2CC(c3ccc(N4CC(C)(N)C4)cc3)C2)O1 [Example 163, 4-[(2S,6R)-2-[[3-[4-(3-amino-3-methyl-azetidin-1-yl)phenyl]azetidin-1-yl]methyl]-6-methyl-morpholin-4-yl]pyrazolo[1,5-a]pyridine-7-carbonitrile]	68
[2H]c1ccc2c(N3C[C@H](CN4CC(c5ccc(N6CC(C)(N)C6)nc5)C4)O[C@H](C)C3)ccc(C#N)c2n1 [Example 138, 5-[(2S,6R)-2-[[3-[6-(3-amino-3-methyl-azetidin-1-yl)-3-pyridyl]azetidin-1-yl]methyl]-6-methyl-morpholin-4-yl]-2-deuterio-quinoline-8-carbonitrile]	19
C[C@@H]1CN(c2ccc(C#N)c3nccnc23)C[C@H](CN2CCN(c3ccnc(N4C[C@@H](N)[C@@H](F)C4)n3)CC2)O1 [Example 108, 8-[(2S,6R)-2-[[4-[2-[(3R,4S)-3-amino-4-fluoro-pyrrolidin-1-yl]pyrimidin-4-yl]piperazin-1-yl]methyl]-6-methyl-morpholin-4-yl]quinoxaline-5-carbonitrile]	1
[2H]c1ccc2c(N3C[C@H](CN4CC(c5ccc(N6C[C@H](OC)[C@@H](N)C6)cc5)C4)O[C@H](C)C3)ccc(C#N)c2n1 [Example 140, 5-[(2S,6R)-2-[[3-[4-[(3S,4S)-3-amino-4-methoxy-pyrrolidin-1-yl]phenyl]azetidin-1-yl]methyl]-6-methyl-morpholin-4-yl]-2-deuterio-quinoline-8-carbonitrile]	25
[2H]c1ccc2c(N3C[C@H](CN4CCN(c5ccc(N6CC7(CN(C)C7)C6)nc5)CC4)O[C@H](C)C3)ccc(C#N)c2n1 [Example 161, 2-deuterio-5-[(2R,6S)-2-methyl-6-[[4-[6-(6-methyl-2,6-diazaspiro[3.3]heptan-2-yl)-3-pyridyl]piperazin-1-yl]methyl]morpholin-4-yl]quinoline-8-carbonitrile]	8
C[C@@H]1CN(c2ccc(C#N)c3nccnc23)C[C@H](CN2CCN(c3ccnc(N4C[C@H](N)[C@@H](F)C4)n3)CC2)O1 [Example 107, 8-[(2S,6R)-2-[[4-[2-[(3S,4S)-3-amino-4-fluoro-pyrrolidin-1-yl]pyrimidin-4-yl]piperazin-1-yl]methyl]-6-methyl-morpholin-4-yl]quinoxaline-5-carbonitrile]	1
